According to patent US11266686B2, “Metal complexes and methods of treatment” (PROCYPRA THERAPEUTICS LLC, priority 2013, dated 2022):

Legend:
[1] = Cu-63 in brain and plasma of treated MPTP-lesioned mice by ICPMS
Protocol: (§1) CuATSM:gluconic acid (1:2) was prepared according to the method of EXAMPLE 7. CuATSM:saccharin (1:2) was prepared according to the methods of EXAMPLE 3. CuATSM was suspended in “Standard Suspension Vehicle” (SSV), consisting of 0.9% (w/v) NaCl, 0.5% (w/v) sodium carboxymethylcellulose, 0.5% (v/v) benzyl alcohol, and 0.4% (v/v) Tween 80 in deionized water. CuATSM:gluconic acid (1:2) and CuATSM:saccharin (1:2) were suspended in sterile water. Samples were prepared by adding one of the compounds to the liquid vehicle (water or SSV) in a vial and then vortexing the mixture for 3 min with a stir bar inside.
(§2) MPTP mouse models of PD are described by (Przedborski & Vila, 2003). […] Behavioral testing via the wire test and tissue harvesting followed.
Copper uptake in brain and in plasma was measured by inductively-coupled plasma mass spectrometry (ICPMS) determination of the naturally-occurring copper isotope Cu-63. Brain tissue was obtained from the left hemisphere of the brain.

MPTP-lesioned mice [2] = experiment: Neutral Red positive cell count in substantia nigra of MPTP-lesioned mice; assay type: in vivo, mouse; details: 30 mg/kg API oral for 21 days
Protocol: as §1, §2
Neuroprotective effects of the CuATSM and NCDs were determined by cell count.
Following the wire pull-up time tests, the mice were anesthetized, blood samples were then obtained for plasma studies, and the mice were then sacrificed by an overdose of anesthetic. Mice were then immediately perfused with cold PBS. The right hemisphere of the brain was placed in 5 ml of chilled 4% wt/vol paraformaldehyde (Sigma-Aldrich) in 0.1 M phosphate buffer overnight at 4° C. and pH 7.4. The brains were then removed and left at 4° C. overnight in 30% wt/vol sucrose (domestic grade) in PBS before being frozen and sectioned on a cryostat. Brains were cut coronally into 30-μm sections in a 1:3 series for the substantia nigra pars compacta (SNpc).
The resulting sections were stained with Neutral Red (Niss1 stain; Sigma-Aldrich). Just prior to immunostaining, the frozen sections are fixed again for 5 min in order to ensure that the brain sections are properly fixed to the glass slide. SNpc nuclei from both normal and lesioned animals were examined. […]
The total number of neurons in the substania nigra was estimated using fractionator sampling (Finkelstein et al., 2000; Stanic et al., 2003; West & Gundersen, 1990). […] The entire SNpc was sampled at every third section and analyzed in a series having a random offset for each brain. […]

MPTP-lesioned mice [3] = experiment: Traction wire test in MPTP-lesioned mouse model of PD; assay type: in vivo; details: for average pull-up time as compared to SSV control: 30 mg/kg API oral for 21 days, gluconic acid NCD p=0.07; for Pull-up Time: 30 mg/kg CuATSM API equivalent, oral gavage for 21 days, average
Description: Traction wire test: Mice are moved to behavior room-testing room 1 hr before test administration. Water and food remain accessible to the mice, and a background “white noise” from a radio is used throughout the hour and test period. Each mouse is pick up the mouse by the tail in one hand, and the mouse held by the tail over the wire until it grasps the wire with the front two paws. The tail is then lowered until the mouse is suspended from the wire by its front two paws. The timing is started as soon as the mouse is suspended independently, with no assistance from the test administrator. The time taken for the mouse to grasp the wire with one of the back feet, such that two front paws and one back paw are grasping the wire, is recorded as the “pull-up time”. The test is repeated for each mouse, three times in a row with a 5 minute inter-trial interval between each suspension on the wire. Mice are returned to their shared cages between trials. If a mouse falls it counts as a trial, and the time until the fall is recorded, and the inter-trial time interval is begun. If the mouse has not completed the task and has not fallen within 60 seconds, then the mouse is taken off the wire and the trial time recorded as 60 seconds. A total of 47 mice were administered MPTP. Of these, a total of 14 mice were then treated with SSV negative control. A total of 14 mice were treated with CuATSM in SSV, of which one mouse was eliminated from the wire pull-up study because of an injured paw. […] Trials in which the mouse fell during the trial were not included in the averages. […] In all instances the mice completed the other two trials successfully so that an average time was calculated for the individual mouse and subsequently for the population.

MPTP lesioned mice = experiment: Stool frequency in MPTP lesioned mice; assay type: in vivo, C57BL/6 mice; details: versus vehicle or untreated
Description: Several rodent models of Parkinson's Disease have shown gastrointestinal dysfunction, which has been correlated with the loss of neuronal subpopulations within the enteric nervous system. Intraperitoneal administration of MPTP (1-methyl-4-phenyl-1,2,3,6-tetrahydropyridine) caused a significant reduction in the number of dopaminergic neurons within the substantia nigra pars compacta of C57BL/6 mice. A reduction in neuronal subpopulations within the myenteric plexus of the ileum 21 days after lesioning was also detected and was concomitant with a reduction in stool frequency, indicative of digestive dysfunction.
Patients with neurological diseases, such as Parkinson's Diseases experiencing gastrointestinal disfunction such as constipation, may be associated with the loss of neuronal populations in conjunction with enteric glial cell reactivity within the myenteric plexus of the gastrointestinal tract. Treatment of these patients with metal complexes, such as CuATSM, that are neuroprotective in the central nervous system provides symptom release and also results in disease modifying in the gastrointestinal tract.
MPTP lesioned mice may be treated with the NCD of CuATSM, and the results are compared with untreated mice.

[4] = MPTP-lesioned mice, 30 mg/kg API oral for 21 days
[5] = MPTP-lesioned mice, 30 mg/kg API oral for 21 days, ICPMS

Row | Structure (SMILES) | Cu-63 in brain, Average ([1]; mouse, in vivo, po, 30 mg/kg) [µg/g] | Cu-63 in plasma, Average ([1]; mouse, in vivo, po, 30 mg/kg) [μmol/ltr] | neurons in the substania nigra as compared to SSV control (MPTP-lesioned mice [2]) | average pull-up time as compared to SSV control (MPTP-lesioned mice [3]) | Pull-up Time (MPTP-lesioned mice [3]) [s] | stool frequency (MPTP lesioned mice) | Cu-63 concentrations in brain tissue as compared to the SSV control [1, 4] | Cu-63 concentrations in plasma as compared to the SSV control [1, 4] | Cu-63 in brain, Average [1, 5] [µg/g] | Cu-63 in plasma, Average [1, 5] [μmol/ltr]
1 | CNC1=NN=C(C)C(C)=NN=C(NC)[S][Cu][S]1 [CuATSM, Copper(II) diacetyl-di(N4-methyl)thiosemicarbazone, reference compound] | 18.48 | 5.40 | significant (all p<0.01 or less) recovery of the neurons | significant (both p<0.01 or less) decrease | 4.22 | improved stool frequency | – | – | – | –
2 | CNC1=NN=C(C)C(C)=NN=C(NC)[S][Cu][S]1.O=C(O)C(O)C(O)C(O)C(O)CO.O=C(O)C(O)C(O)C(O)C(O)CO [CuATSM:gluconic acid (1:2)] | – | – | significant (all p<0.01 or less) recovery of the neurons | decrease in the average pull-up time | 4.62 | – | significant (all p<0.001) increase | No treatments resulted in significant (all p>0.05) change | 22.20 | 5.27
3 | CNC1=NN=C(C)C(C)=NN=C(NC)[S][Cu][S]1.O=C1NS(=O)(=O)c2ccccc21.O=C1NS(=O)(=O)c2ccccc21 [CuATSM:saccharin (1:2)] | – | – | significant (all p<0.01 or less) recovery of the neurons | significant (both p<0.01 or less) decrease | 3.11 | – | significant (all p<0.001) increase | No treatments resulted in significant (all p>0.05) change | 14.66 | 6.13
